In patent US20070042409A1 (priority 2005, published 2007):
Like-named read-outs stand apart in the source and are kept apart here. Each block holds one molecule with its values, some of them ahead of it. No end group written: not given here.

Legend:
[1] = system: obestatin receptors, crude plasma membrane preparation of rat jejunum; test: I^125-obestatin binding to crude plasma membrane preparation of rat jejunum; conditions: for competition of I^125-obestatin binding: rat jejunum preparation; for inhibition of I^125-obestatin binding: jejunum preparation
Method: Mixture of the peptide (20 μg) and 1 mCi [^125I] NaI was transferred to precoated Iodogen vials and incubated for 4 min. The ^125I-labeled peptide was applied to a Sep-Pak C18 cartridge (Waters, Milford, Mass.) before elution with 60% acetonitrile/0.1% TFA. For radioligand binding assays, rat jejunum or other tissues were washed with buffer A (20 mM Hepes, 5 mM EDTA, 1 mM dithiothreitol (DTT), 10 μM amidinophenylmethanesulfonyl fluoride, 5 mg/L leupeptin, 100 mM KCl, pH 7.5), cut into small pieces and homogenized using a Physcotron motorized homogenizer. The homogenates were centrifuged at 1,000 g for 5 min. and the supernatant was centrifuged at 300,000 g for 1 h at 2° C. The pellets (crude membrane fractions) were resuspended with buffer A without KCl, quickly frozen under liquid nitrogen, and stored at −80° C. until use. […] After incubation, the tubes were centrifuged for 10 min. at 10,000 g, and the pellet was washed twice in ice-cold PBS before counting using a γ-spectrophotometer. Specific binding was calculated by subtracting nonspecific binding from total binding.

GPR39 [2] = target: T1, GPR39 (Homo sapiens, UniProt O43194); test: cAMP production in CHO cells overexpressing GPR39; type: cell-based
T1 construct: expressed in transfected cells; host or cells: CHO cells
T1 sequence (O43194 1-453): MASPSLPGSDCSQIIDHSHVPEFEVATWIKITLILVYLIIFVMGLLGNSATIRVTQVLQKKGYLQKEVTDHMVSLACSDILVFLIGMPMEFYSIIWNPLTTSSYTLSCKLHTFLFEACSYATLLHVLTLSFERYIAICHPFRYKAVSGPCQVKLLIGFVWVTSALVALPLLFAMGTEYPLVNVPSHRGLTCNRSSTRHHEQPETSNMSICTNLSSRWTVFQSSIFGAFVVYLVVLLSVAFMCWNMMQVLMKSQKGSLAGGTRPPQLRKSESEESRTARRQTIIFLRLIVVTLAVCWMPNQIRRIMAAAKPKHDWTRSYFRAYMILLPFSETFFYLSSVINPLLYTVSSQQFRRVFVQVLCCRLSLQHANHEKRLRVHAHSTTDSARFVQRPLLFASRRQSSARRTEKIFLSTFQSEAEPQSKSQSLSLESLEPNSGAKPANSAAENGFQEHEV

[3] = Food intake in food-deprived mice after intraperitoneal peptide treatment; type: in vivo; conditions: adult male mice, deprived of food 16 h, measured at 1, 3 and 5 h
Method: (§1) Analysis of gastrointestinal functions. Eight-week-old C57BL6 male mice were housed individually in a regulated environment. Before intraperitoneal treatment with different peptides, mice were deprived of food for 16 h with free access to water. Food intake was measured by placing preweighed pellets in the cage and weighing uneaten pellets at 1, 3 and 5 h after treatment. To estimate gastric emptying responses, mice deprived of food for 16 h were given food pellets for 90 min. before injection of different hormones or saline. After treatment, mice were deprived of food again and killed 2 h later. The stomach was excised at the pylorus and cardia before weighing. Gastric emptying was calculated by subtracting the stomach weight of treated mice from those killed at the time of the hormone injection.

Gastric emptying in mice = type: in vivo; conditions: adult male mice, intraperitoneal, killed 2 h after treatment
Method: as §1

[4] = Body weight gain in adult male rats; type: in vivo; conditions: for body weight: 1 μmol/kg body weight, thrice daily
[5] = system: cultured rat pituitary cells; test: GH secretion from cultured rat pituitary cells
Method: Pituitary cell cultures. Anterior pituitaries were removed from adult male Sprague-Dawley rats and dispersed with 0.3% collagenase, 0.1% hyaluronidase and DNase I (10 μg/ml). The cell suspension was centrifuged at 300 g for 5 min. and the cells were washed twice before incubated in DMEM containing 0.1% bovine serum albumin (BSA), penicillin (100 units/ml), streptomycin (100 μg/ml), fungizone (2.5 μg/ml) and 10% fetal calf serum. Cells were seeded onto poly-lysine-coated 24-well plates at a density of 2˜3×10^5 cells/well. Cultures were kept in a humidified atmosphere of 5% CO2 and 95% air at 37° C. […] Media was removed and rat GH was measured by an ELISA.

GPR39 [6] = target: T1, GPR39; test: I^125-obestatin binding to CHO cells overexpressing GPR39
jejunum muscle strips = test: Isometric force measurement of jejunum muscle strips
Method: Isometric force measurements. Jejunum muscle strips (˜1 cm in length) were cut along the longitudinal axis of the circular muscle layer, and the mucosa was removed to minimize endogenous peptides. Muscle strips were mounted to a TIS8105R (Kent Scientific Corporation, Torrington, Conn.) isometric strain gauge and immersed in a 5 ml organ bath maintained at 37° C. with oxygenated KRB [Krebs-Ringer phosphate buffer, consisting of 50 mM HEPES, 100 mM NaCl, 5 mM KCl, and 1 mM each of MgCl2, NaH2PO4, and CaCl2] as described earlier (Porcher et al. (2005) Am J Physiol Gastrointest Liver Physiol 288(5): G1091-103.). A resting force of 1.0 g was applied to intestinal muscles and a 1.5 h equilibration period was allowed before testing of different peptides during a 5 min. period by incubating muscles with peptides at desired concentrations. After each test, muscle strips were washed with fresh KRB for 20 min. to allow full recovery of basal contractile activities. Maximal contraction was evaluated at the beginning and end of each experiment following treatment with 10 μM of acetylcholine chloride. Contractility data were digitized and stored in a computer using the Acknowledge software (MP 100, Biopac Systems, Inc., Goleta, Calif.). Magnitude of contractile strength is expressed as % of maximal contraction induced by acetylcholine.

GHSR = target: T2, GHSR (Homo sapiens, UniProt Q92847); test: cAMP production in CHO cells expressing GHSR, with or without chimeric Gsq protein; type: cell-based; conditions: without Gsq
T2 construct: expressed in transfected cells; host or cells: CHO cells
T2 sequence (Q92847 whole entry, species assumed): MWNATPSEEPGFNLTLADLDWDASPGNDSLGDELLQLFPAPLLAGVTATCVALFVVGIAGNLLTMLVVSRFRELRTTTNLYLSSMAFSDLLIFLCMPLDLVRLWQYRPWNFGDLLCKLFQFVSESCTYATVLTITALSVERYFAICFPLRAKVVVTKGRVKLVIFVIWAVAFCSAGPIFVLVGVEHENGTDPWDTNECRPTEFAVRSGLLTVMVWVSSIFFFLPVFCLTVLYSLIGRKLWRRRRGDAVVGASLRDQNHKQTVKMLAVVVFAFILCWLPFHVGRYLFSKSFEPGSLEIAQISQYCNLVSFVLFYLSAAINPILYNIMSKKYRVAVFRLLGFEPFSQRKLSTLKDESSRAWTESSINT

GPR39 [7] = target: T1, GPR39; test: SRE promoter-luciferase reporter in cells cotransfected with GPR39; type: cell-based; conditions: cotransfection of GPR39 and SRE promoter-luciferase construct
V50-GPR39 = target: T3, V50-GPR39 (Homo sapiens, UniProt O43194, A50V); conditions: ratio of affinities to obestatin
T3 sequence (O43194 1-453 A50V): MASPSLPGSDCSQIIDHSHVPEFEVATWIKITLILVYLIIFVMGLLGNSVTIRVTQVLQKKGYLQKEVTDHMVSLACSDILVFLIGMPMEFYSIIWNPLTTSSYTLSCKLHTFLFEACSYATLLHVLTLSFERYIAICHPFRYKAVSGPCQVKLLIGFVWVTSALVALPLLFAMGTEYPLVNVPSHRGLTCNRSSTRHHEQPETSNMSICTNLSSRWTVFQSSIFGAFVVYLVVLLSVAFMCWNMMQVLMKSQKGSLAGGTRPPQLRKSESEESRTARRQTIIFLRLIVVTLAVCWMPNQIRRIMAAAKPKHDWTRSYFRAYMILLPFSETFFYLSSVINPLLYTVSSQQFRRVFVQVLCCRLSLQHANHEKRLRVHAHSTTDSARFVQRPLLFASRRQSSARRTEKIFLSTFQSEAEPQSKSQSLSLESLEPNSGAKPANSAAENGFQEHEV

[8] = target: T4, GPR39 (wild type A50-GPR39) (human, UniProt O43194 1-453); test: displacement of I^125-obestatin from GPR39
T4 construct: also called obestatin receptor; orphan receptor GPR39
T4 sequence: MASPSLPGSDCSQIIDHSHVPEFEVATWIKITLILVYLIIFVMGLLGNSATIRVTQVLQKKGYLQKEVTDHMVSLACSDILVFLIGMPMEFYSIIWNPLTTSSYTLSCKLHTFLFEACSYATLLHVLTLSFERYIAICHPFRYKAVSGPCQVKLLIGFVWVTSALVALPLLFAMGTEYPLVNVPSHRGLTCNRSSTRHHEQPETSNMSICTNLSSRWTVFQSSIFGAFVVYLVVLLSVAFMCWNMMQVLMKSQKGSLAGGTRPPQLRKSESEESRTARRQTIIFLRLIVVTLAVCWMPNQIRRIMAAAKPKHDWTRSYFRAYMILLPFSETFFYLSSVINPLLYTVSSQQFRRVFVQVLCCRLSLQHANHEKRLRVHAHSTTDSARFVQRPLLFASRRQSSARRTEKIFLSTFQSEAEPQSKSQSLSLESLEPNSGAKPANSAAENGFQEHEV

Molecule: neuromedin U: peptide purchased from Phoenix Pharmaceuticals (FRVDEEFQSPFASQSRGYFLFRPRN; ends and bridges not checked; UniProt P48645 142-166, looked up)
competition of I^125-obestatin binding [1]: not competed

Molecule: NA-obestatin: non-amidated obestatin, synthesized by GL Biochem
food intake [3]: minimally effective
gastric emptying activity (Gastric emptying in mice): less effective
competition of I^125-obestatin binding [1]: less effective than obestatin

Molecule: ghrelin: n-octanoylated 28 amino acid peptide, endogenous GHSR ligand; purchased from Phoenix Pharmaceuticals (GSSFLSPEHQRVQQRKESKKPPAKLQPR; not fully specified (residue 3); UniProt Q9UBU3 24-51, looked up) [reference compound]
food intake [3]: minimally effective
gastric emptying activity (Gastric emptying in mice): ineffective
body weight [4]: increased body weight
competition of I^125-obestatin binding [1]: not competed
cAMP production (GPR39 [2]): ineffective
GH secretion [5]: 2.32+/−0.08 ng/culture

Molecule: urocortin: peptide injected in mice as positive control for food intake suppression (DNPSLSIDLTFHLLRTLLELARTQSQRERAEQNRIIFDSV; ends and bridges not checked; UniProt P55089 83-122, looked up) [reference compound]
food intake [3]: suppressed food intake

Molecule: Nc1nc2c(ncn2[C@@H]2O[C@H](COP(=O)(O)OP(=O)(O)OP(O)(O)=S)[C@@H](O)[C@H]2O)c(=O)[nH]1 [GTPγS]
inhibition of I^125-obestatin binding ([1]; GTPγS 1 uM): 5%
inhibition of I^125-obestatin binding ([1]; GTPγS 10 uM): 20%
inhibition of I^125-obestatin binding ([1]; GTPγS 100 uM): 45%

Molecule: synthesized amidated human obestatin, 23 residue peptide derived from proghrelin; FNAPFDVGIKLSGVQYQQHSQAL-NH2 (SEQ ID NO:4); also used iodinated as radioligand
food intake [3]: suppressed food intake for five hours in a dose-dependent manner
gastric emptying activity (Gastric emptying in mice): sustained suppression of gastric emptying activity
body weight [4]: suppressed body weight gain
body weight, cotreatment with ghrelin ([4]; cotreatment of obestatin with ghrelin): antagonized the orexigenic action of ghrelin
contractile activity of jejunum muscle strips in presence of ghrelin (jejunum muscle strips; effect on stimulatory effect of ghrelin): antagonized the known stimulatory effect of ghrelin
contractile activity of jejunum muscle strips (jejunum muscle strips; isometric force measurement): decreased contractile activity
Kd ([1]; labeled obestatin, rat jejunum crude plasma membrane): 4 nM
competition of obestatin binding to GPR39 (GPR39 [6]): competed
cAMP production (GPR39 [2]): dose-dependent increases in cAMP production
cAMP response (GHSR): did not respond
SRE promoter-luciferase signaling (GPR39 [7]): conferred obestatin
affinity of V50-GPR39 relative to wild type A50-GPR39 (V50-GPR39): two-fold higher affinity
GH secretion ([5]; 100 nM, cultured rat pituitary cells, 1 h, control 1.04+/−0.03): 1.04+/−0.03 ng/culture

Continued, values first:

competition of I^125-obestatin binding [1]: not competed
cAMP production (GPR39 [2]): ineffective
Molecule: CC[C@H](C)[C@H](NC(=O)[C@@H]1CCCN1C(=O)[C@@H](NC(=O)[C@@H](N)Cc1ccccc1)C(C)C)C(=O)N[C@@H](Cc1ccccc1)C(=O)N[C@H](C(=O)N[C@@H](Cc1ccc(O)cc1)C(=O)NCC(=O)N[C@@H](CCC(=O)O)C(=O)N[C@@H](CC(C)C)C(=O)N[C@@H](CCC(N)=O)C(=O)N[C@@H](CCCNC(=N)N)C(=O)N[C@@H](CCSC)C(=O)N[C@@H](CCC(N)=O)C(=O)N[C@@H](CCC(=O)O)C(=O)N[C@@H](CCCCN)C(=O)N[C@@H](CCC(=O)O)C(=O)N[C@@H](CCCNC(=N)N)C(=O)N[C@@H](CC(N)=O)C(=O)N[C@@H](CCCCN)C(=O)NCC(=O)N[C@@H](CCC(N)=O)C(=O)O)[C@@H](C)O [motilin]

competition of I^125-obestatin binding [1]: less effective than obestatin
competition of obestatin binding to GPR39 (GPR39 [6]): less effective
Molecule: (des1-10)obestatin: truncated obestatin lacking residues 1-10 (LSGVQYQQHSQAL)

binding result [8]: binds
B1: (des1-10)obestatin (peptide)
peptide: LSGVQYQQHSQAL
modifications: ends and bridges not checked
notes: Synthetic obestatin lacking residues 1-10; The range 11-23 is derived from the name; also called truncated (des1-10)obestatin
